{
  "source": "patent US8852664B2",
  "about": "“Neo-menthyl derivatives as flavor materials” (Symrise AG, priority 2008, dated 2014)",
  "key": {"[1]": {"test": "Flavor comparison in chicken aroma base (FIG. 2), panel of trained testers", "assay_type": "in vivo", "conditions": "1 ppm in chicken aroma base vs base with 0.2 wt. % standard aroma (containing MSG)", "text": "Here, a base for a chicken aroma is compared with (i) such a base having 1 ppm of the pure-enantiomer compound 1-((1S,2S,5R)-2-isopropyl-5-methyl-cyclohexyl)-3-(3-methoxy-propyl)-urea (1) added and (ii) with such a base having 0.2 wt. % of a standard aroma (containing MSG) added.\nThe flavor of the chicken base (solid dark line) was compared with the aid of tasting by a panel of trained testers with the flavor firstly of such a base to which 1 ppm of 1-((1S,2S,5R)-2-Isopropyl-5-methyl-cyclohexyl)-3-(3-methoxy-propyl)-urea (1) was added (solid light line), and secondly such a base to which 0.2 wt. % of a standard chicken aroma containing sodium glutamate was added (dotted line).\nThe testers evaluated the strength of the test directions indicated, in each case by specifying marks on a scale of from 0 (no corresponding flavor) to 8 (very strong corresponding flavor). The average values of the respective marks are represented."}, "[2]": {"test": "Flavor profile determined by a trained panel of at least 5 testers", "assay_type": "in vivo", "conditions": "trained panel of at least 5 testers, tasting against a 0.5% strength salt and a 0.5% strength sugar solution", "experimental": "The flavor profiles were determined by a trained panel of at least 5 testers by tasting against a 0.5% strength salt and a 0.5% strength sugar solution"}},
  "data": [
    {"compound": "COCCCNC(=O)N[C@H]1C[C@H](C)CC[C@H]1C(C)C", "note": "[(1), 1-((1S,2S,5R)-2-isopropyl-5-methyl-cyclohexyl)-3-(3-methoxy-propyl)-urea]", "values": [
      {"measurement": "flavor character compared with standard aroma containing MSG", "setting": "[1]", "result": "genuine MSG-like character"},
      {"measurement": "Flavor Profile", "setting": "[2]", "result": "salty, long-lasting, umami, no by notes"}
    ]}
  ]
}
